Assay results published in patent US11964949B2, “Substituted phenyloxazolidinones for antimicrobial therapy” (priority 2015, dated 2024).
Converted amounts (≈) assume the structure as drawn. Where two headings read alike, the source gives them in different places.

Columns and labels:
[1] = tested on: Mycobacterium tuberculosis H37Rv; assay: In vitro assay for antimicrobial susceptibility (microplate Alamar blue, MIC); format: cell-based; details: Mycobacterium tuberculosis, read-out: MIC (μg/mL) against H37Rv
[2] = tested on: mitochondrial protein synthesis (MPS) in H9C2 cells; assay: In vitro assay for MPS inhibition (COX-1 / SDH-A ELISA in H9C2 cells); format: cell-based, rat; details: Rattus norvegicus, read-out: IC50 (μM) MPS inhibition
[3] = M. tuberculosis H37Rv, 7H9 broth, Alamar blue
[4] = 120 h, H9C2 cells, 5 days incubation

Compound | MIC [1, 3] | IC50 [2, 4] | MIC ([1]; H37RV) | IC50 ([2]; H9c2, 120 h)
O=C1O[C@@H](Cn2cncn2)CN1c1ccc(N2CCC[S+]([O-])CC2)c(F)c1 (stereo partly drawn) [OTB-140, (5R)-5-((1H-1,2,4-Triazol-1-yl)methyl)-3-(3-fluoro-4-(1-oxido-1,4-thiazepan-4-yl)phenyl)oxazolidin-2-one] | 3.69 µg/mL (≈ 9.39 µM) | > 100 µM |  | 
CC(=O)NC[C@H]1CN(c2ccc(N3CC4(COC4)C3)c(F)c2)C(=O)O1 [OTB-202, (S)—N-((3-(3-Fluoro-4-(2-oxa-6-azaspiro[3.3]heptan-6-yl)phenyl)-2-oxo-oxazolidin-5-yl)methyl)acetamide] | 0.6 to 1.2 µg/mL (≈ 1.72 to 3.43 µM) | 17 to 29 µM |  | 
CC(=O)NC[C@H]1CN(c2ccc(N3C4CSCC3C4)c(F)c2)C(=O)O1 [OTB-227, N-(((5S)-3-(4-(3-Thia-6-azabicyclo[3.1.1]heptan-6-yl)-3-fluorophenyl)-2-oxo-oxazolidin-5-yl)methyl)acetamide] |  |  | 0.889 µg/mL (≈ 2.43 µM) | 15.2 µM
O=C1O[C@@H](CO)CN1c1cc(F)c(N2CC3(COC3)C2)c(F)c1 [OTB-229, (R)-3-(3,5-Difluoro-4-(2-oxa-6-azaspiro[3.3]heptan-6-yl)phenyl)-5-(hydroxymethyl)oxazolidin-2-one] | 1.9 to 7.4 µg/mL (≈ 5.82 to 22.7 µM) | > 100 µM |  | 
CC(=O)NC[C@H]1CN(c2cc(F)c(N3CC4(COC4)C3)c(F)c2)C(=O)O1 [OTB-230, (S)—N-((3-(3,5-Difluoro-4-(2-oxa-6-azaspiro[3.3]heptan-6-yl)phenyl)-2-oxo-oxazolidin-5-yl)methyl)acetamide] | 0.2 µg/mL (≈ 0.544 µM) | 13 µM |  | 
COC(=O)NC[C@H]1CN(c2cc(F)c(N3CC4(COC4)C3)c(F)c2)C(=O)O1 [OTB-231, Methyl (S)-((3-(3,5-difluoro-4-(2-oxa-6-azaspiro[3.3]heptan-6-yl)phenyl)-2-oxo-oxazolidin-5-yl)methyl)carbamate] | 0.24 to 0.7 µg/mL (≈ 0.626 to 1.83 µM) | 37 to 63 µM |  | 
CS(=O)(=O)NC[C@H]1CN(c2cc(F)c(N3CC4(COC4)C3)c(F)c2)C(=O)O1 [OTB-232, (R)—N-((3-(3,5-Difluoro-4-(2-oxa-6-azaspiro[3.3]heptan-6-yl)phenyl)-2-oxo-oxazolidin-5-yl)methyl)methanesulfonamide] | 1.5 to 4 µg/mL (≈ 3.72 to 9.92 µM) | > 100 µM |  | 
O=C(NC[C@H]1CN(c2cc(F)c(N3CC4(COC4)C3)c(F)c2)C(=O)O1)C1CC1 [OTB-233, (S)—N-((3-(3,5-Difluoro-4-(2-oxa-6-azaspiro[3.3]heptan-6-yl)phenyl)-2-oxo-oxazolidin-5-yl)methyl)cyclopropanecarboxamide] | 0.36 to 1 µg/mL (≈ 0.915 to 2.54 µM) | 8.4 to 50 µM |  | 
COC(=O)NC[C@H]1CN(c2ccc(N3[C@@H]4CC[C@H]3CSC4)c(F)c2)C(=O)O1 [OTB-237, Methyl (((S)-3-(4-((1R,5S)-3-thia-8-azabicyclo[3.2.1]octan-8-yl)-3-fluorophenyl)-2-Oxo-oxazolidin-5-yl)methyl)carbamate] |  |  | 0.03 to 0.11 µg/mL (≈ 0.0759 to 0.278 µM) | 15 to 23 µM
O=C(NC[C@H]1CN(c2ccc(N3CC4(COC4)C3)c(F)c2)C(=O)O1)C1CC1 [OTB-238, (S)—N-((3-(3-Fluoro-4-(2-oxa-6-azaspiro[3.3]heptan-6-yl)phenyl)-2-oxo-oxazolidin-5-yl)methyl)cyclopropanecarboxamide] | 2 to 4 µg/mL (≈ 5.33 to 10.7 µM) | 20 µM |  | 
O=C(NC[C@H]1CN(c2ccc(N3CC4(COC4)C3)c(F)c2)C(=O)O1)C1CCC1 [OTB-239, (S)—N-((3-(3-Fluoro-4-(2-oxa-6-azaspiro[3.3]heptan-6-yl)phenyl)-2-oxo-oxazolidin-5-yl)methyl)cyclobutanecarboxamide] | 2.1 to 3.8 µg/mL (≈ 5.39 to 9.76 µM) | 19 to 67 µM |  | 
O=C(NC[C@H]1CN(c2cc(F)c(N3CC4(COC4)C3)c(F)c2)C(=O)O1)C1CCC1 [OTB-240, (S)—N-((3-(3,5-Difluoro-4-(2-oxa-6-azaspiro[3.3]heptan-6-yl)phenyl)-2-oxo-oxazolidin-5-yl)methyl)cyclobutanecarboxamide] | 0.24 to 0.6 µg/mL (≈ 0.589 to 1.47 µM) | 19 to 67 µM |  | 
O=C1O[C@@H](Cn2ccnn2)CN1c1ccc(N2CC3(CSC3)C2)c(F)c1 [OTB-241, (R)-5-((1H-1,2,3-Triazol-1-yl)methyl)-3-(3-fluoro-4-(2-thia-6-azaspiro[3.3]heptan-6-yl)phenyl)oxazolidin-2-one] | 0.116 µg/mL (≈ 0.309 µM) | 19.8 µM |  | 
COC(=O)NC[C@H]1CN(c2cc(F)c(N3CC4(CSC4)C3)c(F)c2)C(=O)O1 [OTB-242, Methyl (S)-((3-(3,5-difluoro-4-(2-thia-6-azaspiro[3.3]heptan-6-yl)phenyl)-2-oxo-oxazolidin-5-yl)methyl)carbamate] | 0.02 to 0.06 µg/mL (≈ 0.0501 to 0.15 µM) | 23 to 71 µM |  | 
O=C(NC[C@H]1CN(c2cc(F)c(N3CC4(CSC4)C3)c(F)c2)C(=O)O1)C1CC1 [OTB-243, (S)—N-((3-(3,5-Difluoro-4-(2-thia-6-azaspiro[3.3]heptan-6-yl)phenyl)-2-oxo-oxazolidin-5-yl)methyl)cyclopropanecarboxamide] | 0.03 µg/mL (≈ 0.0733 µM) | 14 µM |  | 
O=C1O[C@@H](Cn2ccnn2)CN1c1cc(F)c(N2CC3(CSC3)C2)c(F)c1 [OTB-245, (R)-5-((1H-1,2,3-Triazol-1-yl)methyl)-3-(3,5-difluoro-4-(2-thia-6-azaspiro[3.3]heptan-6-yl)phenyl)oxazolidin-2-one] | 0.03 to 0.5 µg/mL (≈ 0.0763 to 1.27 µM) | 25 to 35 µM |  | 
O=C1O[C@@H](Cn2ccnn2)CN1c1ccc(N2CC3(C2)C[S+]([O-])C3)c(F)c1 [OTB-247] | 1.2 to 1.4 µg/mL (≈ 3.07 to 3.58 µM) | 10 µM |  | 
O=C(NC[C@H]1CN(c2cc(F)c(N3CC4(C3)C[S+]([O-])C4)c(F)c2)C(=O)O1)C1CCC1 [OTB-251] | 0.9 µg/mL (≈ 2.05 µM) | 24 µM |  | 
O=C(NC[C@H]1CN(c2cc(F)c(N3CC4(C3)C[S+]([O-])C4)c(F)c2)C(=O)O1)C1CC1 [OTB-252] | 0.7 µg/mL (≈ 1.65 µM) | 52 µM |  | 
COC(=O)NC[C@H]1CN(c2cc(F)c(N3CC4(C3)C[S+]([O-])C4)c(F)c2)C(=O)O1 [OTB-253] | 0.7 µg/mL (≈ 1.69 µM) | 10 µM |  | 
O=C(NC[C@H]1CN(c2ccc(N3CC4(C3)C[S+]([O-])C4)c(F)c2)C(=O)O1)C1CC1 [OTB-255] | 1.9 µg/mL (≈ 4.66 µM) | 10 µM |  | 
COC(=O)NC[C@H]1CN(c2ccc(N3CC4(C3)C[S+]([O-])C4)c(F)c2)C(=O)O1 [OTB-256] | 4 µg/mL (≈ 10.1 µM) | 46 µM |  | 
O=C1O[C@@H](CO)CN1c1ccc(N2CC3(CSC3)C2)c(F)c1 [OTB-260, (R)-3-(3-Fluoro-4-(2-thia-6-azaspiro[3.3]heptan-6-yl)phenyl)-5-(hydroxymethyl)oxazolidin-2-one] | 1.49 µg/mL (≈ 4.59 µM) | 30 µM |  | 
CS(=O)(=O)NC[C@H]1CN(c2ccc(N3CC4(CSC4)C3)c(F)c2)C(=O)O1 [OTB-260-2A] | 0.82 µg/mL (≈ 2.04 µM) | > 100 µM |  | 
CS(=O)(=O)NC[C@H]1CN(c2ccc(N3CC4(C3)C[S+]([O-])C4)c(F)c2)C(=O)O1 [OTB-260-2B] | 0.49 µg/mL (≈ 1.17 µM) | > 100 µM |  | 
CNC(=O)OC[C@H]1CN(c2ccc(N3CC4(CSC4)C3)c(F)c2)C(=O)O1 [OTB-260-4A] |  | > 100 µM | 0.39 µg/mL (≈ 1.02 µM) | 
CNC(=O)OC[C@H]1CN(c2ccc(N3CC4(C3)C[S+]([O-])C4)c(F)c2)C(=O)O1 [OTB-260-4B] |  | > 100 µM | 20 µg/mL (≈ 50.3 µM) | 
O=C1O[C@@H](Cn2nccn2)CN1c1ccc(N2CC3(CSC3)C2)c(F)c1 [OTB-260-5A] | 0.44 µg/mL (≈ 1.17 µM) | > 100 µM |  | 
O=C1O[C@@H](Cn2nccn2)CN1c1ccc(N2CC3(C2)C[S+]([O-])C3)c(F)c1 [OTB-260-5B] | > 32 µg/mL | > 100 µM |  | 
